Like-named read-outs stand apart in the source and are kept apart here.

Consider six compounds from patent publication US10104893B2, “Pesticidally active polycyclic derivatives with sulfur substituted five membered ring heterocyles” (Syngenta Participations AG, priority 2015, dated 2018).

Data set [1] has as its system Diabrotica balteata (Corn Root Worm). The experiment in a line: Insecticidal action against Diabrotica balteata. In kind it is in vivo. The conditions noted are these: 96 h, read-out: effect in at least one of the two categories (mortality or growth inhibition); for percent effect (mortality or growth inhibition) at 200 ppm: application rate of 200 ppm, maize sprouts, L2 larvae, 4 days after infestation. Here is the method: Example B2: Insecticidal Action Against Diabrotica balteata (Corn Root Worm)
Maize sprouts placed onto an agar layer in 24-well microtiter plates were treated with aqueous test solutions prepared from 10′000 ppm DMSO stock solutions by spraying. After drying, the plates were infested with L2 larvae (6 to 10 per well). The samples were assessed for mortality and growth inhibition in comparison to untreated samples 4 days after infestation.

Data set [2] relates to Spodoptera littoralis (Egyptian Cotton Leaf Worm). The data set can be described thus: Insecticidal action against Spodoptera littoralis, sprayed cotton leaf discs. The conditions noted are these: foliar, 72 h, read-out: control (mortality, anti-feeding effect, growth inhibition). In kind it is in vivo. Here is the method: Example B8: Insecticidal Action Against Spodoptera littoralis (Egyptian Cotton Leaf Worm)
Cotton leaf discs were placed onto agar in 24-well microtiter plates and sprayed with aqueous test solutions prepared from 10′000 ppm DMSO stock solutions. After drying the leaf discs were infested with five L1 larvae. The samples were assessed for mortality, anti-feeding effect, and growth inhibition in comparison to untreated samples 3 days after infestation. Control of Spodoptera littoralis by a test sample is given when at least one of the categories mortality, anti-feeding effect, and growth inhibition is higher than the untreated sample.

For data set [3], the system named is Euschistus heros (Neotropical Brown Stink Bug). The experiment in a line: Insecticidal action against Euschistus heros. The class given is in vivo. Conditions: 120 h, read-out: effect in at least one of the two categories (mortality or growth inhibition); for percent effect (mortality or growth inhibition) at 200 ppm: application rate of 200 ppm, soybean leaves, N2 nymphs, 5 days after infestation. Here is the method:
Example B3: Insecticidal Action Against Euschistus heros (Neotropical Brown Stink Bug)
Soybean leaves on agar in 24-well microtiter plates were sprayed with aqueous test solutions prepared from 10′000 ppm DMSO stock solutions. After drying the leaves were infested with N2 nymphs. The samples were assessed for mortality and growth inhibition in comparison to untreated samples 5 days after infestation.

Data set [4] deals with Plutella xylostella (Diamond Back Moth). The experiment in a line: Insecticidal action against Plutella xylostella. Conditions: 120 h, read-out: effect in at least one of the two categories (mortality or growth inhibition); for percent effect (mortality or growth inhibition) at 200 ppm: application rate of 200 ppm, artificial diet, L2 larvae, 5 days after infestation. In kind it is in vivo. Here is the method:
Example B7: Insecticidal Action Against Plutella xylostella (Diamond Back Moth)
24-well microtiter plates with artificial diet were treated with aqueous test solutions prepared from 10′000 ppm DMSO stock solutions by pipetting. After drying, the plates were infested with L2 larvae (10 to 15 per well). The samples were assessed for mortality and growth inhibition in comparison to untreated samples 5 days after infestation.

Data set [5] deals with Myzus persicae (Green Peach Aphid). The experiment in a line: Insecticidal action against Myzus persicae: feeding/contact activity. The class given is in vivo. The conditions noted are these: foliar, 144 h. Here is the method: Example B4: Insecticidal Action Against Myzus persicae (Green Peach Aphid): Feeding/Contact Activity
Sunflower leaf discs were placed onto agar in a 24-well microtiter plate and sprayed with aqueous test solutions prepared from 10′000 ppm DMSO stock solutions. After drying, the leaf discs were infested with an aphid population of mixed ages. The samples were assessed for mortality 6 days after infestation.

Setting [6] is: application rate of 200 ppm, cotton leaf discs, L1 larvae, 3 days after infestation.

As to `CCS(=O)(=O)c1sc(-c2ccc(Cl)cc2)nc1-c1nc2cc(C(F)(F)F)n(C)c(=O)c2n1C` [A48, 2-[2-(4-chlorophenyl)-5-ethylsulfonyl-thiazol-4-yl]-3,5-dimethyl-6-(trifluoromethyl)imidazo[4,5-c]pyridin-4-one], the percent effect (mortality or growth inhibition) at 200 ppm in data set [1], in data set [3] and in data set [4] was at least 80% in each case. Also, in data set [2] (setting [6]), the mortality at 200 ppm was at least 80%.
For the compound `CCS(=O)(=O)c1cc(I)sc1-c1nc2cc(C(F)(F)F)n(C)c(=O)c2n1C` [A44, 2-(3-ethylsulfonyl-5-iodo-2-thienyl)-3,5-dimethyl-6-(trifluoromethyl)imidazo[4,5-c]pyridin-4-one], the percent effect (mortality or growth inhibition) at 200 ppm in data set [1], in data set [3] and in data set [4] was at least 80% throughout. Besides, in data set [2] (setting [6]), the mortality at 200 ppm is at least 80%.
As for `CCn1c(C(F)(F)F)cc2nc(-c3sc(-c4cccc(F)c4)cc3S(=O)(=O)CC)n(C)c2c1=O`, the melting point fell in the range of 194 to 195 °C.
Regarding `CCSc1cc(-c2ccc(Cl)cc2)sc1-c1nc2cc(C(F)(F)F)n(CC)c(=O)c2n1C` [A1, 2-[5-(4-chlorophenyl)-3-ethylsulfanyl-2-thienyl]-5-ethyl-3-methyl-6-(trifluoromethyl)-3aH-imidazo[4,5-c]pyridin-4-one], the percent effect (mortality or growth inhibition) at 200 ppm in data set [1] and in data set [4] was at least 80% in each case.
Turning to `CCn1c(C(F)(F)F)cc2nc(-c3sc(-c4ccc(Cl)cc4)cc3S(=O)(=O)CC)n(C)c2c1=O` [A2, 2-[5-(4-chlorophenyl)-3-ethylsulfonyl-2-thienyl]-5-ethyl-3-methyl-6-(trifluoromethyl)-3aH-imidazo[4,5-c]pyridin-4-one], the percent control (mortality or growth inhibition) at 200 ppm in data set [1], in data set [3] (in Glycine max) and in data set [4] was at least 80% each time. Further, the mortality at 200 ppm in data set [2] and in data set [5] was at least 80% in each case.
In turn, `CCn1c(C(F)(F)F)cc2nc(-c3sc(-c4cc(F)cc(F)c4)cc3S(=O)(=O)CC)n(C)c2c1=O` yielded a melting point of 180 to 182 °C.

What is called mortality is the percentage killed. The melting point is the temperature of the solid-liquid transition.
